Data: article PMC5944968, “A multi-chamber microfluidic intestinal barrier model using Caco-2 cells for drug transport studies” (PLoS ONE, 2018)
Where two headings read alike, the source gives them in different places.

Legend:
[1] = tested on: Caco-2 monolayers
Method: (§1) Buffer^+ was prepared by mixing Hank’s Buffered Saline solution (HBSS; Gibco, Denmark), 0.1% (wt/vol) OVA (ovalbumin; from chicken egg white, Sigma, Denmark) and 10 mM HEPES (HEPES; Sigma, Denmark) at pH 7.4.
(§2) The Caco-2 translocation of peptide, [^3H]mannitol or Rh 123 over Caco-2 layers is expressed as the apparent permeability (Papp), given by: Papp=dQ/dt1/AC0 (2) Where dQ/dt is the steady-state flux across the cell layer (pmol/s), A is the surface area (1.12 cm^2 for Transwell, 0.1 cm^2 for microfluidic), and C0 is the initial sample concentration.

[2] = tested on: P-gp; test: Rh 123 bidirectional permeability / P-gp efflux across Caco-2 monolayers in microfluidic device; type: in vitro ADME; settings: human, day 10 of cell culture; for Papp at 10 μM: Caco-2, 10 μM Rh 123, microfluidic device, n = 3
Method: Before carrying out the Rh 123 studies, buffer^+ was flowed to both the upper and lower channels for 1 hr. Following that Rh 123 (Sigma-Aldrich, Denmark) prepared in buffer^+ to a concentration of 10 μM was flowed to the basolateral side. 200μl of buffer^+ was added to each waste reservoirs. At each 15min interval, 150 μl was removed from the respective waste reservoirs with replacement of 150μl of buffer^+. Studies were carried out in triplicates.
as §2
For the P-gp studies, the collected samples were analyzed for Rh 123 content using a fluorescence plate reader with excitation/emission of 485/546nm, based on standard curves prepared from test solutions. The efflux ratio of P-gp was determined by: effluxratio=Papp(Basal→Apical)/Papp(Apical→Basal) (4)

[3] = tested on: Caco-2 monolayers; test: TEER of Caco-2 monolayers in microfluidic device after permeation enhancer; type: cell-based, Human
Method: TEER measurements (Ω) of the Caco-2 cells cultured in the microfluidic device were obtained by coupling the connecting wires of the electrodes to a multimeter (Keithley, USA) using alligator clips. Each chamber contained two sets of top electrodes and two sets of bottom electrodes. Each time the TEER values were recorded, only one top electrode and one bottom electrode are connected to the multimeter. Four different configurations of TEER values were recorded, averaged to calculate the final TEER values measured across the microchamber.
The final TEER values (Ω cm^2) were determined by subtracting the baseline measurement in the absence of cells (Rbaseline) from the read out (R1) and multiplying with the area of cell culture (Ao, 1.12 cm^2 for Transwell and 0.1 cm^2 for the microfluidic device) as shown in Eq 1.
as §1
To validate the accuracy and dynamic span of TEER values acquired from the electrodes on the microfluidic chip, a permeation enhancer, tetradecyl-β-D-maltoside (TDM), was introduced to the Caco-2 monolayers for two hours. The concentration of TDM used in the earlier reported studies is expected to cause a transient disruption of the Caco-2 monolayer integrity, while causing minimal cell death, which is reversible after 24 hours in fresh cell culture medium.

[4] = tested on: Caco-2 monolayers; test: TEER of Caco-2 monolayers in Transwell inserts after permeation enhancer; type: cell-based, Human; settings: recovering to normal levels within 24h in fresh medium
Method: TEER was measured in Transwell inserts with Millicell ERS-2 chopstick Silver/SilverChloride (Ag/AgCl) electrodes (Millipore, USA), and calculated via Eq 1 (see below). […] Sigma, Denmark), insulin (Novo Nordisk, Denmark) and tetradecyl-β-D-Maltoside (TDM; Sigma, Denmark) were all prepared using buffer^+ as the diluent. Buffer^+ was prepared by mixing Hank’s Buffered Saline solution (HBSS; Gibco, Denmark), 0.1% (wt/vol) OVA (ovalbumin; from chicken egg white, Sigma, Denmark) and 10 mM HEPES (HEPES; Sigma, Denmark) at pH 7.4. […] The gentle shaking was to ensure there was little unstirred diffusion layers of fluid in the basolateral region. […] PerkinElmer), after mixing with scintillation fluid (Microscint-40; PerkinElmer), along with a peptide and FD4 content. After the experiments, the cells were washed twice with buffer^+ and replenished with medium for 24 hour recovery. In the microfluidic system, similar to the Transwell studies, before the start of experiment, the DMEM was replaced with buffer^+. Buffer^+ was flowed into the system for 1 hr. Subsequently, the buffer was changed to the test solutions in the top fluidic layer. Flow rate was set at 3 μl/min (in both the upper and lower layers). In the collection reservoirs of the basolateral chambers, 200 μl of buffer was added to each of the collection reservoirs. […]

OC[C@@H](O)[C@@H](O)[C@H](O)[C@H](O)CO [mannitol]
Papp in microfluidic chip compared to static Transwell cultures [1]: slightly higher (not significant)

COC(=O)c1ccccc1-c1c2ccc(=N)cc-2oc2cc(N)ccc12 [Rh 123, Rhodamine 123]
Papp at 10 μM ([2]; read-out: Papp(apical → basal)): ~1.03 ×10⁻⁶ cm/s
Papp at 10 μM ([2]; read-out: Papp(basal → apical)): ~11.2 ×10⁻⁶ cm/s
efflux ratio at 10 μM ([2]; Caco-2, microfluidic device, read-out: efflux ratio Papp(Basal→Apical)/Papp(Apical→Basal)): ~10.8

CCCCCCCCCCCCCCO[C@@H]1O[C@H](CO)[C@@H](O[C@H]2O[C@H](CO)[C@@H](O)[C@H](O)[C@H]2O)[C@H](O)[C@H]1O [TDM, tetradecyl-β-D-maltoside]
TEER in the presence of TDM, % of initial values ([3]; TDM for two hours): 21%
TEER recovery, % of initial values ([3]; after 24 hours of continuous perfusion with cell culture medium): 90%
TEER change following TDM addition ([3]; recovering to normal levels within 24h in fresh medium): reversibly decreased
TEER change following TDM addition [4]: reversibly decreased
